How the values were obtained:
[1] = test system: human fibroblasts (cell strain MRC5); format: cell-based
Protocol: Normal, human fibroblasts (cell strain MRC5) were treated with DCC for five to seven population doublings. Complex IV subunit I in treated fibroblasts was detected immunocytochemically with mAb RAC#18-1D6E1A8 using standard protocols (Janes et al., J. Histochem. Cytochem., 52: 1011-1018, 2004; RAC#18-1D6E1A8 is commercially available from Molecular Probes, MitoScience, and Abcam). Subunit I levels were determined relative to mitochondrial mass measured by porin content (a mitochondrial outer membrane protein encoded by nuclear DNA). Porin content was also determined immunocytochemically using porin-specific mAb 31HL (available from Calbiochem). mtDNA depletion in DCC-treated fibroblasts was detected using real time PCR and FISH with a mtDNA probe in accordance with commonly used methods (see, Janes et al., J. Histochem. Cytochem., 52: 1011-1018, 2004).

[2] = molecular target: human mtDNA polymerase γ (Homo sapiens, UniProt P54098); conditions: cited from earlier work
[3] = molecular target: Complex I (Homo sapiens, UniProt P49821+P56556); conditions: normal fibroblast Complex I; DPI in reaction buffer (FIG. 28)
Protocol: (§1) Mitochondria (human heart, human fibroblast or bovine heart) were solubilized at 5 mg/ml mitochondrial protein, 1% wt/vol lauryl maltoside, 100 mM NaCl, 25 mM HEPES pH 7.5, and the protease inhibitors pepstatin (0.5 μg/ml), leupeptin (0.5 μg/ml) and PMSF (1 mM). The samples were incubated at 4° C. for 30 minutes and the insoluble material removed by centrifugation at 16,000×g for 20 minutes. Solubilized mitochondria were diluted to the desired concentration in 150 mM NaCl, 50 mM Tris-HCl, pH 7.5 containing 2.5% bovine serum albumin as a blocking and stabilization agent.
(§2) After the entire sample wicked up into the nitrocellulose (approximately 15 minutes), the stick was transferred to a second well containing 50 μl of wash buffer (150 mM NaCl, 50 mM Tris-HCl, pH 7.5), which was allowed to wick up the stick (approximately 15 minutes). The absorbent pad was then removed and the entire dipstick incubated in a tube containing 3 ml wash buffer for approximately 15 minutes. The washed dipstick (with the immunocaptured OXPHOS complex of interest) was then transferred to the appropriate enzyme reaction buffer to reveal enzyme activity as described below.
Complex I. The Complex I reaction buffer solution contained 0.1 mg/ml NADH, 2.5 mg/ml NBT in 2 mM Tris-HCl, pH 7.4. […]

[4] = molecular target: Complex IV (Bos taurus, UniProt P00396)
Protocol: as §1, §2
Complex IV. The Complex IV reaction buffer solution contained 0.5 mg/ml 3,3′ diaminobenzidine-tetrachloride (DAB) and 0.1 mM reduced cytochrome c in PBS, pH 7.4. […]

[5] = molecular target: T1, Complex IV (cytochrome c oxidase) (Bos taurus, UniProt P00396); test: Complex IV (cytochrome c oxidase) activity, ferrocytochrome c oxidation at 550 nm; format: biochemical, bovine; conditions: mitochondrial membranes exposed to up to 1600 μM; membranes and isolated enzyme (FIG. 24A)
T1 construct: from tissue; host or cells: bovine heart mitochondria
Protocol: 4. Fe^3Fe^2+ Catalyzed Oxidation of Mitochondria. Mitochondria at 5 mg/mL in 25 mM KH2PO4 pH 7.2, 5 mM MgCl2 were incubated for 0, 0.5, 1, 2, or 4 hours with 1 mM FeCl3/25 mM sodium ascorbate. Incubation could not be performed for less than 0.5 h because iron could only be removed by rapid dialysis, which was performed for 30 min against 25 mM potassium phosphate pH 7.2, 5 mM MgCl2 using 12000 Da MWCO dialysis membrane (Spectrapor). After oxidation, mitochondrial membranes were subjected to the Complex IV activity assay described below. The Complex IV enzyme was then isolated by the immunocapture extraction method above.
5. Peroxynitrite Catalyzed Oxidation of Mitochondria. […] Following this oxidative treatment, Complex IV activity was measured before and after Complex IV immunocapture.
6. […] Potassium cyanide-sensitive Complex IV activity was measured in bovine heart mitochondria or with immunopurified isolated enzyme. […] Reduced bovine heart cytochrome c was purified over a Sephadex G-15 (Pharmacia) column equilibrated with assay buffer, collected in 1 mL fractions, and the concentration measured at 550 nm in a Beckman DU7. The oxidation of ferrocytochrome c was followed at 550 nm in a 1 mL reaction vessel in the DU7 or in a 96 well plate (Corning) using a Victor2 1460 multi-plate reader (Perkin-Elmer) with a narrow band pass 550 nm filter. […]

[6] = test system: Complex I (NADH:UQ1 oxidoreductase); test: Immunocaptured Complex I NADH:UQ1 oxidoreductase microplate activity assay; format: biochemical; conditions: 16 μg heart mitochondria per well; 240 ng rotenone (FIG. 27)
Protocol: In brief, 1 μg mAb RAC#24-20D1AB7 was added per well (50 μl of a 20 μg/ml solution in PBS) on a protein G-coated 96-well plate, incubated overnight at 4° C., then washed three times with PBS. Then, heart mitochondria solubilized in lauryl maltoside as previously described and diluted in PBS were added at 16 μg (♦), 8 μg (▪), 4 μg (▴) and 0 μg (●) per well in 50 μl aliquots and incubated at room temperature for 2 hours. The wells then were washed three times with 200 μl/well of 20 mM Tris/HCl, pH 7.5, 50 mM KCl, 0.015% lauryl maltoside. A phospholipid solution (see below) was added at 40 μl/well, incubated for 45 minutes at 4° C. and then 200 μl of assay solution (25 mM KPi pH 7.2, 5 mM MgCl2, 2 mM KCN, 260 μM NADH, and 200 μM UQ1) was added directly to the phospholipid solution. The oxidation of NADH was measured by following the decrease of the absorbance at 340 nm. Absorbance changes were measured at 340 nm with a Victor2 from Perkin Elmer for two hours.
The phospholipid stock solution was made by mixing 0.76 ml of 10 mg/ml egg-yolk phosphatidyl choline, 0.38 ml of 5 mg/ml egg-yolk phosphatidylethanolamine, and 0.1 ml of 5 mg/ml cardiolipin in round bottom flask. This mixture was dried under N2, resuspended in 4.25 ml buffer I (20 mM Tris/HCl pH 7.5, 50 mM KCl), and vortexed. […]

[7] = molecular target: T2, C-V-IP (inhibitor protein IF1), human (UniProt Q9UII2)
T2 sequence: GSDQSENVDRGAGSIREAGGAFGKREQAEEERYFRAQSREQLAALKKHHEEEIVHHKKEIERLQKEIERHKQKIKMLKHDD

[8] = molecular target: T3, recombinant human IF1, His-tagged (UniProt Q9UII2)
T3 sequence: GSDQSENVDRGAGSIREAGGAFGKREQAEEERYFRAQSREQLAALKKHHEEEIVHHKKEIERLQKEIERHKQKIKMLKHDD

[9] = test system: human mitochondrial F1/F0 ATPase (Complex V); test: ATPase activity of immunocaptured F1/F0 ATPase, 96-well; format: biochemical
Protocol: Solubilization. Samples were thawed and placed in 25 mM HEPES pH 7.5 (to dissociate F1F0/IF1 interactions) or 10 mM […] (Anatrace) pH 6.5 (to retain F1F0/IF1 interactions), containing 0.4% (w/v) […], and the protease inhibitors leupeptin (0.5 μg/ml), pepstatin (0.5 μg/ml) and PMSF (1 mM). Mitochondria were solubilized at 5 mg/ml and whole cells were solubilized at 2×10^7 cells/ml. Samples were mixed well and then kept on ice for 30 minutes with occasional agitation. Insoluble material was then removed by centrifugation at 16,000×g for 20 minutes at 4° C.
Immunocapture. Assays were run in 96-well plates (Falcon Probind™) using 100 μl/well. […] To control for non-specific adsorption of ATPase, a non-specific mouse monoclonal antibody was used as a null capture mAb. Wells were then loaded with solubilized test samples diluted in TBS with 2.5% BSA, incubated for 2 hours at room temperature and then washed 4 times with TBS.
ATPase activity. ATPase reaction buffer (25 mM HEPES pH 7.5 or 10 mM MOPS pH 6.5, with 25 mM KCl, 5 mM MgCl2, 5 mM KCN and 2 mM ATP) was added at 100 μl/well and incubated for 3 hours at 37° C. The reaction was stopped and free Pi generated by ATP hydrolysis was detected essentially as described by Walker et al. (Meth. Enzymol., 260: 163-190, 1995) by addition of 0.5% ammonium molybendate in 0.7 M H2SO4 (42 μl/well) followed by 10% ascorbic acid (4 μl/well). After incubation for 30 minutes at room temperature to allow color development, absorbance was measured at 690 nm.
IF1 Stripping Conditions. IF1 was dissociated from previously immunocaptured IF1/F1F0 complexes by exposure to IF1 stripping buffer (30 mM Tris-sulfate pH 8, 250 mM KCl, 2 mM EDTA, 75 mM sucrose) for 30 minutes at 37° C. (Van Raaij et al., Biochem. 35: 15618-15625, 1996). The wells were then washed with either a pH 7.5 wash buffer (TBS) or a pH 6.5 wash buffer (10 mM MOPS pH 6.5, 150 mM NaCl and 1 mM MgCl2), and ATPase activity measured at either pH 7.5 or pH 6.5 as described above.
IF1 Addition Conditions. Recombinant human IF1 was obtained by PCR-based amplification of the appropriate gene from a human heart CDNA library (Clontech), cloning into pET15b (Novagen), transformation of E. coli and overexpression and purification of the His-tagged protein on a Ni column by standard protocols (Novagen). Isolated protein was diluted in pH 6.5 wash buffer (as described above) containing 1 mM ATP and incubated with previously immunocaptured F1F0. The wells were then washed with pH 6.5 wash buffer and ATPase activity measured at pH 6.5 as described above.

human mtDNA polymerase γ, sequence (P54098 whole entry): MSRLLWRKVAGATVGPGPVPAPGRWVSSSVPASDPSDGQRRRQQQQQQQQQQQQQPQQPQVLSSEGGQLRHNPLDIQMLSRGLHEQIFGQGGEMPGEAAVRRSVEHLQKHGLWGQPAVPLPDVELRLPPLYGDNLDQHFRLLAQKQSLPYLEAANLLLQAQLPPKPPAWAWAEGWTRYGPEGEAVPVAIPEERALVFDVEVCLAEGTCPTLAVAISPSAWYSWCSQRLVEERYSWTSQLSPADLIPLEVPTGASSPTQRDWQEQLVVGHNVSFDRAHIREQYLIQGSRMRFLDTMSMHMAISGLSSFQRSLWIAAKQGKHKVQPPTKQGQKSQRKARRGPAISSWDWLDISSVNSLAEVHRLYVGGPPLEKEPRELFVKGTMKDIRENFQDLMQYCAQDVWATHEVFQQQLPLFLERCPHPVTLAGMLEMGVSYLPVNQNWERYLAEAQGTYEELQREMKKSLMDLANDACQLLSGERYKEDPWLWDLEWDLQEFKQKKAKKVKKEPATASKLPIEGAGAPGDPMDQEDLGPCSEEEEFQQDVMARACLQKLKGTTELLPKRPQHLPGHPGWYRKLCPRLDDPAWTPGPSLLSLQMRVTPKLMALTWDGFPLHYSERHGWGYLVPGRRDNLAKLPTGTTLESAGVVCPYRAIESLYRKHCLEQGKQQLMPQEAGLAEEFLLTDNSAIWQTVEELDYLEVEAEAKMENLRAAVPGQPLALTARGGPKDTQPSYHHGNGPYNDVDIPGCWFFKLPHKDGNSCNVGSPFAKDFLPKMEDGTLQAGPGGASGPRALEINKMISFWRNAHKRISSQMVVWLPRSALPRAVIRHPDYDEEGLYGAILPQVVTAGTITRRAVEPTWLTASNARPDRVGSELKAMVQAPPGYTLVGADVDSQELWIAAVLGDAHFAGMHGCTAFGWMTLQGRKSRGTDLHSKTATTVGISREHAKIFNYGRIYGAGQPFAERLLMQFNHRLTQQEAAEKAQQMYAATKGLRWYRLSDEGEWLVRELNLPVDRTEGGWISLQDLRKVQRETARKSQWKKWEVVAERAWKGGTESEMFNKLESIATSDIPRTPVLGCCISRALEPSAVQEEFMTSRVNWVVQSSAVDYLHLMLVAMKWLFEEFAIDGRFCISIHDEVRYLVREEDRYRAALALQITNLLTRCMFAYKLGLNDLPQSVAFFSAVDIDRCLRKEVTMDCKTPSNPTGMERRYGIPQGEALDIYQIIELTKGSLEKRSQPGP
Complex I, sequence (P49821 21-464): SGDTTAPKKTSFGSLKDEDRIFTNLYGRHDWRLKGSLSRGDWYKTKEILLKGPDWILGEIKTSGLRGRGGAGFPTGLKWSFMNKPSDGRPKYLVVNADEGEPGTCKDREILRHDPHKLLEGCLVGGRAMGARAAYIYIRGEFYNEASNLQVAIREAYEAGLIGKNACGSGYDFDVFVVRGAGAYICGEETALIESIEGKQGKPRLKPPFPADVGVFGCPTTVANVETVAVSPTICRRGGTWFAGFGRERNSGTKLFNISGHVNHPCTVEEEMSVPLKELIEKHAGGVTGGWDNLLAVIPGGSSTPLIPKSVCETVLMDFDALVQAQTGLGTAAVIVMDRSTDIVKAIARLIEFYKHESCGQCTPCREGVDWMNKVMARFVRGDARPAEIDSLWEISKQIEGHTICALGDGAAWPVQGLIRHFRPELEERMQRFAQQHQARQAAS
Complex I, sequence (P56556 whole entry): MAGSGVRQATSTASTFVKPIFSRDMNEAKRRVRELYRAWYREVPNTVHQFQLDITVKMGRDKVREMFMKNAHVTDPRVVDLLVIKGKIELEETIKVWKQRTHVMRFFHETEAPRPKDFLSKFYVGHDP

In the case of Nc1ccn([C@H]2CC[C@@H](CO)O2)c(=O)n1 [DDC, zalcitabine], the “depletion of mtDNA from fibroblasts” value [1] is given as “within three population doublings” and the “inhibition of isolated human mtDNA polymerase γ (hierarchy DDC≧DDI≧D4T≧3TC≧AZT≧ABV)” value [2] is given as “inhibited most dramatically”.

In the case of c1ccc2c(c1)[I+]c1ccccc1-2 [DPI, diphenyleneiodonium], the “effect on Complex I activity dipstick signal” value [3] is reported as “reduced signal”.

With [N-]=[N+]=[N-] [azide] the “inhibition of oxidase activity in the Complex IV capture zone” value [4] was “near complete inhibition”.

For O=NOO [peroxynitrite], the “inhibition of Complex IV” value [5] was about 50%.

In the case of C=C(C)[C@H]1Cc2c(ccc3c2O[C@@H]2COc4cc(OC)c(OC)cc4[C@@H]2C3=O)O1 [rotenone], the “fraction of immunocaptured NADH:UQ1 oxidoreductase activity sensitive to inhibition” value [6] is reported as “approximately 30%”.

In the case of Complex V (F1/F0 ATPase), human, the ATP hydrolysis activity [7] is reported as “the enzyme could be greatly activated (>10-fold) by conditions that strip the IF1 from the protein” and the ATP hydrolysis activity [8] is reported as “addition of recombinant IF1, which reduced the rate of ATP hydrolysis to that before stripping”.

B1: recombinant IF1: His-tagged recombinant human inhibitor protein of F1/F0 ATPase expressed in E. coli (protein)
chain: GSDQSENVDRGAGSIREAGGAFGKREQAEEERYFRAQSREQLAALKKHHEEEIVHHKKEIERLQKEIERHKQKIKMLKHDD
modifications: left off: small tags and cut ends
For B1, the “effect on stripped F1/F0 ATPase from GM00028 and MRC5 cells” value ([9]; 5 μg/ml (FIG. 9)) was “inhibited” and the “effect on ATP hydrolysis of IF1-stripped immunocaptured F1/F0 ATPase” value ([9]; human heart mitochondria, assayed at pH 6.5 (FIG. 6)) was “reduced the rate of ATP hydrolysis to that before stripping”.

— US20050153381A1, “Immunocapture of mitochondrial protein complexes” (priority 2002, published 2005)
